In patent US20260232658A1, “AZETIDINYL BENZOXAZOLE COMPOUNDS AND THEIR USE AS MER AND AXL INHIBITORS” (DONG-A ST CO., LTD., priority 2022, published 2026):

What was measured:
human MER (528-end) = target: T1, human MER (528-end) (Homo sapiens, UniProt Q12866); assay: HTRF kinase activity biochemical assay, MER; settings: recombinant kinase, 10 uM ATP, 30 minutes pre-incubation; read-out: HTRF MERTK IC50;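 further: phosphorylation of a biotin-tagged tyrosine kinase substrate detected by Eu3+-cryptate antibody and streptavidin-XL665 time-resolved fluorescence, read after 1 h at room temperature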
T1 construct: human MER (528-end); purchased Carnabio, Japan
T1 sequence (Q12866 528-999 limits assumed): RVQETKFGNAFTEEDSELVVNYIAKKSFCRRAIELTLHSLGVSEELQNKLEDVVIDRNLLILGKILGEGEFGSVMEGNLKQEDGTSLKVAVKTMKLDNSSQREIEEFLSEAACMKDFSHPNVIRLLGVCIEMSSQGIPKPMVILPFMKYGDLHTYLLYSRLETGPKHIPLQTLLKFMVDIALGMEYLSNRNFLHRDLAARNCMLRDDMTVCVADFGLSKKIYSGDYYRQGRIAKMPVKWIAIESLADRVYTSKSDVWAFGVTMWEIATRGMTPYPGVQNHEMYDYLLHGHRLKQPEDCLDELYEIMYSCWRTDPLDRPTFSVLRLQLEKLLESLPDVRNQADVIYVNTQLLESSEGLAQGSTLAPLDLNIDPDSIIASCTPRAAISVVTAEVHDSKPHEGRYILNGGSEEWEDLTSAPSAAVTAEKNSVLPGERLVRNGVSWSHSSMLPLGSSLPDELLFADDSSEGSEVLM

human AXL (473-end) = target: T2, human AXL (473-end) (Homo sapiens, UniProt P30530); assay: HTRF kinase activity biochemical assay, AXL; settings: recombinant kinase, 10 uM ATP, 30 minutes pre-incubation; read-out: HTRF AXL IC50;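 further: phosphorylation of a biotinylated tyrosine kinase substrate detected via Eu3+-cryptate anti-TK antibody and streptavidin-XL665, fluorescence read after a 1 h incubation at room temperature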
T2 construct: human AXL (473-end); purchased SignalChem, Canada
T2 sequence (P30530 473-894 limits assumed): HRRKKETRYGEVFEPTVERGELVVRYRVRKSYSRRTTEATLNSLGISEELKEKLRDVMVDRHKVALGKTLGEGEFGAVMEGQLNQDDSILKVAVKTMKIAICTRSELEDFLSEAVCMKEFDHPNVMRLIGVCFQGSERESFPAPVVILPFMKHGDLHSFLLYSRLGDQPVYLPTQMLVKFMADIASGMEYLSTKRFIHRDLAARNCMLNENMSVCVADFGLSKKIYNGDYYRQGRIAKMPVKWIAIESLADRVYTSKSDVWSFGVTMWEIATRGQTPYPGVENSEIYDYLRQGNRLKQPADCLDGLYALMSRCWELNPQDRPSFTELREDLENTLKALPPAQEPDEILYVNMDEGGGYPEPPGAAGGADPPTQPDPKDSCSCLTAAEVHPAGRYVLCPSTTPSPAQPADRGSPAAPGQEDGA

TYRO3 (455-end) = target: T3, TYRO3 (455-end) (Homo sapiens, UniProt Q06418); assay: HTRF kinase activity biochemical assay, TYRO3; settings: recombinant kinase, 10 uM ATP, 30 minutes pre-incubation; read-out: HTRF TYRO IC50;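 further: biotinylated tyrosine kinase substrate phosphorylation detected via streptavidin-XL665 and Eu3+-cryptate anti-phospho antibody time-resolved fluorescence, read after 1 h detection at room temperature, 384-well format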
T3 construct: TYRO3 (455-end); purchased SignalChem, Canada
T3 sequence (Q06418 455-890 limits assumed): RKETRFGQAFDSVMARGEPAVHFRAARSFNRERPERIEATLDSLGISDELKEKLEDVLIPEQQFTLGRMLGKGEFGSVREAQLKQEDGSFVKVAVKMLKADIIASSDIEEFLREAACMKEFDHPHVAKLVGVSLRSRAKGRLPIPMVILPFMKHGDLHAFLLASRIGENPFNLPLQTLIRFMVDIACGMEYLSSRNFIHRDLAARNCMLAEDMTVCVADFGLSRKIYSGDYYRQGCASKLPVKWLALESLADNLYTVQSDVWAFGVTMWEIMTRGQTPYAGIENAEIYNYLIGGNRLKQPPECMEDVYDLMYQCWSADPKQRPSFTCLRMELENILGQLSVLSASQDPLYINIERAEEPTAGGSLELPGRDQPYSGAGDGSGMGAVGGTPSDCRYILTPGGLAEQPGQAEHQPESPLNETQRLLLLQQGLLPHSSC

SMILES | IC50 (human MER (528-end)) | IC50 (human AXL (473-end)) | IC50 (TYRO3 (455-end))
Cn1cc(Nc2ncc(C3CN(c4nc5ccc(CC(=O)N6CCC[C@H]6CO)cc5o4)C3)nc2C(N)=O)cn1 [Example 66, 6-[1-(6-{2-[(2S)-2-(hydroxymethyl)pyrrolidin-1-yl]-2-oxoethyl}-1,3-benzoxazol-2-yl)azetidin-3-yl]-3-[(1-methyl-1H-pyrazol-4-yl)amino]pyrazine-2-carboxamide] | 2 nM | 3 nM | 2900 nM
Cn1cc(Nc2ncc(C3CN(c4nc5ccc(O[C@H]6CCOC6)cc5o4)C3)nc2C(N)=O)cn1 [Example 69, 3-[(1-methyl-1H-pyrazol-4-yl)amino]-6-[1-(6-{[(3S)-oxolan-3-yl]oxy}-1,3-benzoxazol-2-yl)azetidin-3-yl]pyrazine-2-carboxamide] | 2 nM | 8 nM | 570 nM
CO[C@H]1CCN(C(=O)Cc2ccc3nc(N4CC(c5cnc(Nc6cnn(C)c6)c(C(N)=O)n5)C4)oc3c2)C1 [Example 70, 6-[1-(6-{2-[(3S)-3-methoxypyrrolidin-1-yl]-2-oxoethyl}-1,3-benzoxazol-2-yl)azetidin-3-yl]-3-[(1-methyl-1H-pyrazol-4-yl)amino]pyrazine-2-carboxamide] | 3 nM | 20 nM | > 12500 nM
COC[C@H]1CCCN1C(=O)Cc1ccc2nc(N3CC(c4cnc(Nc5cnn(C)c5)c(C(N)=O)n4)C3)oc2c1 [Example 71, 6-[1-(6-{2-[(2R)-2-(methoxymethyl)pyrrolidin-1-yl]-2-oxoethyl}-1,3-benzoxazol-2-yl)azetidin-3-yl]-3-[(1-methyl-1H-pyrazol-4-yl)amino]pyrazine-2-carboxamide] | 2 nM | 4 nM | 3730 nM
Cn1cc(Nc2ncc(C3CN(c4nc5ccc(OCC(=O)N6CCC6)cc5o4)C3)nc2C(N)=O)cn1 [Example 73, 6-(1-{6-[2-(azetidin-1-yl)-2-oxoethoxy]-1,3-benzoxazol-2-yl}azetidin-3-yl)-3-[(1-methyl-1H-pyrazol-4-yl)amino]pyrazine-2-carboxamide] | 2 nM | 9 nM | 1700 nM
Cn1cc(Nc2ncc(C3CN(c4nc5ccc(C(=O)N6CCC[C@@H]6C(C)(C)O)cc5o4)C3)nc2C(N)=O)cn1 [Example 75, 6-(1-{6-[(2R)-2-(2-hydroxypropan-2-yl)pyrrolidine-1-carbonyl]-1,3-benzoxazol-2-yl}azetidin-3-yl)-3-[(1-methyl-1H-pyrazol-4-yl)amino]pyrazine-2-carboxamide] | < 1 nM | 3 nM | 65 nM
CN1CCCC(Oc2ccc3nc(N4CC(c5cnc(Nc6cnn(C)c6)c(C(N)=O)n5)C4)oc3c2)C1=O (stereo not drawn) [Example 76, 6-(1-{6-[(1-methyl-2-oxopiperidin-3-yl)oxy]-1,3-benzoxazol-2-yl}azetidin-3-yl)-3-[(1-methyl-1H-pyrazol-4-yl)amino]pyrazine-2-carboxamide] | < 1 nM | 2 nM | 240 nM
C=CCOP(=O)(OCC=C)OC(C)(C)CCOc1ccc2nc(N3CC(c4cnc(Nc5cnn(C)c5)c(C(N)=O)n4)C3)oc2c1 [Example 77A, 4-{[2-(3-f{6-carbamoyl-5-[(1-methyl-1H-pyrazol-4-yl)amino]pyrazin-2-yl}azetidin-1-yl)-1,3-benzoxazol-6-yl]oxy}-2-methylbutan-2-yl diprop-2-en-1-yl phosphate] | 2 nM | 6 nM | 250 nM
Cn1cc(Nc2ncc(C3CN(c4nc5ccc(OC6CCCC6O)cc5o4)C3)nc2C(N)=O)cn1 (stereo not drawn) [Example 79, 6-(1-{6-[(2-hydroxycyclopentyl)oxy]-1,3-benzoxazol-2-yl}azetidin-3-yl)-3-[(1-methyl-1H-pyrazol-4-yl)amino]pyrazine-2-carboxamide] | < 1 nM | 2 nM | 66 nM
Cn1cc(Nc2ncc(C3CN(c4nc5ccc(CC(=O)N6CCC[C@@H]6C(F)(F)F)cc5o4)C3)nc2C(N)=O)cn1 [Example 81, 3-[(1-methyl-1H-pyrazol-4-yl)amino]-6-[1-(6-{2-oxo-2-[(2R)-2-(trifluoromethyl)pyrrolidin-1-yl]ethyl}-1,3-benzoxazol-2-yl)azetidin-3-yl]pyrazine-2-carboxamide] | 1 nM | 3 nM | 1070 nM
Cn1cc(Nc2ccc(C3CN(c4nc5ccc(OCCC(C)(C)O)cc5o4)C3)nc2C(N)=O)cn1 [Example 84, 6-{1-[6-(3-hydroxy-3-methylbutoxy)-1,3-benzoxazol-2-yl]azetidin-3-yl}-3-[(1-methyl-1H-pyrazol-4-yl)amino]pyridine-2-carboxamide] | 2 nM | 7 nM | 1370 nM
Cc1nnc(COc2ccc3nc(N4CC(c5cnc(Nc6cnn(C)c6)c(C(N)=O)n5)C4)oc3c2)o1 [Example 86, 6-(1-{6-[(5-methyl-1,3,4-oxadiazol-2-yl)methoxy]-1,3-benzoxazol-2-yl}azetidin-3-yl)-3-[(1-methyl-1H-pyrazol-4-yl)amino]pyrazine-2-carboxamide] | 5 nM | 11 nM | 63 nM
Cn1cc(Nc2ncc(C3CN(c4nc5ccc(OCC(=O)C6CC6)cc5o4)C3)nc2C(N)=O)cn1 [Example 87, 6-{1-[6-(2-cyclopropyl-2-oxoethoxy)-1,3-benzoxazol-2-yl]azetidin-3-yl}-3-[(1-methyl-1H-pyrazol-4-yl)amino]pyrazine-2-carboxamide] | 1 nM | 5 nM | 330 nM

Next, values leading:

IC50 (human MER (528-end)) | IC50 (human AXL (473-end)) | IC50 (TYRO3 (455-end)) | SMILES
2 nM | 4 nM | 130 nM | Cc1ccc2nc(N3CC(c4cnc(Nc5cn[nH]c5)c(C(N)=O)n4)C3)oc2c1 [Example 74, 6-[1-(6-methyl-1,3-benzoxazol-2-yl)azetidin-3-yl]-3-[(1H-pyrazol-4-yl)amino]pyrazine-2-carboxamide]
2 nM | 6 nM | 270 nM | Cc1ccc2nc(N3CC(c4ccc(Nc5cnn(C)c5)c(C(N)=O)n4)C3)oc2c1 [Example 78, 6-[1-(6-methyl-1,3-benzoxazol-2-yl)azetidin-3-yl]-3-[(1-methyl-1H-pyrazol-4-yl)amino]pyridine-2-carboxamide]
< 1 nM | 3 nM | 150 nM | Cc1cnc(COc2ccc3nc(N4CC(c5cnc(Nc6cnn(C)c6)c(C(N)=O)n5)C4)oc3c2)s1 [Example 82, 3-[(1-methyl-1H-pyrazol-4-yl)amino]-6-(1-{6-[(5-methyl-1,3-thiazol-2-yl)methoxy]-1,3-benzoxazol-2-yl}azetidin-3-yl)pyrazine-2-carboxamide]
4 nM | 26 nM | 6800 nM | CN(C)C(=O)COc1ccc2nc(N3CC(c4ccc(Nc5cnn(C)c5)c(C(N)=O)n4)C3)oc2c1 [Example 83, 6-(1-{6-[2-(dimethylamino)-2-oxoethoxy]-1,3-benzoxazol-2-yl}azetidin-3-yl)-3-[(1-methyl-1H-pyrazol-4-yl)amino]pyridine-2-carboxamide]
14 nM | 33 nM | 2070 nM | Cn1cc(Nc2ccc(C3CN(c4nc5ccc(O)cc5o4)C3)nc2C(N)=O)cn1 [Example 84A, 6-[1-(6-hydroxy-1,3-benzoxazol-2-yl)azetidin-3-yl]-3-[(1-methyl-1H-pyrazol-4-yl)amino]pyridine-2-carboxamide]
< 1 nM | 3 nM | 51 nM | Cn1cc(Nc2ncc(C3CN(c4nc5ccc(-c6ccc(O)cc6)cc5o4)C3)nc2C(N)=O)cn1 [Example 88, 6-{1-[6-(4-hydroxyphenyl)-1,3-benzoxazol-2-yl]azetidin-3-yl}-3-[(1-methyl-1H-pyrazol-4-yl)amino]pyrazine-2-carboxamide]
